According to ChEMBL document CHEMBL1201862, “PubChem BioAssay data set” (2004):
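Step 1: Grow cells in 96-well plates. Step 2: Expose to compound for 48 hours at 5 concentrations. Step 3: Interpolate endpoints linearly; if unreached, use highest concentration. The concentration for 50% growth inhibition is given as GI50.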 The source made the active and inactive calls. Rule as the data show it: active = GI50 up to about 1.1 µM and inactive = higher.

Experiments:
Test in all cases: growth of human tumour cells (NCI), 48 h
NCI/ADR-RES = system: NCI/ADR-RES
SNB-75 = system: SNB-75
HOP-92 = system: HOP-92
HL-60 = system: HL-60
SF-295 = system: SF-295
MOLT-4 = system: MOLT-4
Malme-3M = system: Malme-3M
NCI-H522 = system: NCI-H522
HOP-62 = system: HOP-62
OVCAR-4 = system: OVCAR-4
UO-31 = system: UO-31
MCF7 = system: MCF7
DU-145 = system: DU-145
BT-549 = system: BT-549
SNB-19 = system: SNB-19
SK-OV-3 = system: SK-OV-3
A498 = system: A498
RPMI-8226 = system: RPMI-8226
Hs-578T = system: Hs-578T
SR = system: SR

Compound | GI50 (NCI/ADR-RES) | GI50 (SNB-75) | GI50 (HOP-92) | GI50 (HL-60) | GI50 (SF-295) | GI50 (MOLT-4) | GI50 (Malme-3M) | GI50 (NCI-H522) | GI50 (HOP-62) | GI50 (OVCAR-4) | GI50 (UO-31) | GI50 (MCF7) | GI50 (DU-145) | GI50 (BT-549) | GI50 (SNB-19) | GI50 (SK-OV-3) | GI50 (A498) | GI50 (RPMI-8226) | GI50 (Hs-578T) | GI50 (SR)
COc1ccc(OC)c2sc(N3C(=O)/C(=C/c4cccc(Oc5ccccc5)c4)N=C3c3ccccc3)nc12 | > 100 µM (inactive) | > 100 µM (inactive) | > 100 µM (inactive) | 38 µM (inactive) | > 100 µM (inactive) | 31.9 µM (inactive) | > 100 µM (inactive) | 53.7 µM (inactive) | > 100 µM (inactive) | > 100 µM (inactive) | > 100 µM (inactive) | 35.2 µM (inactive) | > 100 µM (inactive) | > 100 µM (inactive) | > 100 µM (inactive) | > 100 µM (inactive) | > 100 µM (inactive) | 38.8 µM (inactive) | > 100 µM (inactive) | –
C[C@]12CC[C@H]3[C@@H](CC=C4C[C@@H](O)CC[C@@]43C)[C@@H]1C/C(=C\c1cccnc1)[C@@H]2O | 11.8 µM (inactive) | – | 11.9 µM (inactive) | – | 2.55 µM (inactive) | – | > 100 µM (inactive) | 12.6 µM (inactive) | 4.67 µM (inactive) | 4.68 µM (inactive) | 55.5 µM (inactive) | 6.75 µM (inactive) | 13.5 µM (inactive) | 13.5 µM (inactive) | 16 µM (inactive) | 10.8 µM (inactive) | 7.14 µM (inactive) | > 100 µM (inactive) | 6.21 µM (inactive) | 1.57 µM (inactive)
C[C@H](CCCOS(C)(=O)=O)[C@H]1CC[C@H]2[C@@H]3CC[C@@H]4C[C@H](OS(C)(=O)=O)CC[C@]4(C)[C@H]3CC[C@]12C | 26.7 µM (inactive) | 31.8 µM (inactive) | 0.118 µM (active) | – | 37.5 µM (inactive) | > 100 µM (inactive) | 15.2 µM (inactive) | 29.7 µM (inactive) | 22.5 µM (inactive) | 27.9 µM (inactive) | 34 µM (inactive) | 26.4 µM (inactive) | 27 µM (inactive) | 36.8 µM (inactive) | 27.5 µM (inactive) | 20.3 µM (inactive) | 22.3 µM (inactive) | 17.1 µM (inactive) | 24.4 µM (inactive) | 19.2 µM (inactive)
O=C1NC(N2CCCCC2)=N/C1=C\c1cccs1 | > 100 µM (inactive) | – | > 100 µM (inactive) | > 100 µM (inactive) | > 100 µM (inactive) | > 100 µM (inactive) | > 100 µM (inactive) | > 100 µM (inactive) | > 100 µM (inactive) | > 100 µM (inactive) | > 100 µM (inactive) | > 100 µM (inactive) | > 100 µM (inactive) | > 100 µM (inactive) | > 100 µM (inactive) | > 100 µM (inactive) | – | > 100 µM (inactive) | > 100 µM (inactive) | > 100 µM (inactive)
Cc1ccc(S(=O)(=O)NC(=O)NCCC(=O)O)cc1 | – | > 100 µM (inactive) | > 100 µM (inactive) | > 100 µM (inactive) | > 100 µM (inactive) | > 100 µM (inactive) | > 100 µM (inactive) | > 100 µM (inactive) | > 100 µM (inactive) | > 100 µM (inactive) | > 100 µM (inactive) | > 100 µM (inactive) | > 100 µM (inactive) | 25.8 µM (inactive) | > 100 µM (inactive) | > 100 µM (inactive) | – | > 100 µM (inactive) | > 100 µM (inactive) | > 100 µM (inactive)
COC(=O)[C@@H]1Cc2ccc(OC)c(c2)OCCC(=O)N1 | > 100 µM (inactive) | > 100 µM (inactive) | – | – | > 100 µM (inactive) | > 100 µM (inactive) | > 100 µM (inactive) | > 100 µM (inactive) | > 100 µM (inactive) | > 100 µM (inactive) | > 100 µM (inactive) | > 100 µM (inactive) | > 100 µM (inactive) | > 100 µM (inactive) | > 100 µM (inactive) | > 100 µM (inactive) | – | > 100 µM (inactive) | > 100 µM (inactive) | 32.6 µM (inactive)
COc1ccc(-c2cc(-c3ccco3)c(C#N)c(=S)n2C2OC(COC(C)=O)C(OC(C)=O)C(OC(C)=O)C2OC(C)=O)cc1 (stereo not drawn) | 12.7 µM (inactive) | 5.85 µM (inactive) | 4.02 µM (inactive) | 3.98 µM (inactive) | 1.96 µM (inactive) | 12.3 µM (inactive) | 5.18 µM (inactive) | 4.56 µM (inactive) | 2.61 µM (inactive) | 2.54 µM (inactive) | 13.7 µM (inactive) | 23.6 µM (inactive) | 7.94 µM (inactive) | 2.82 µM (inactive) | 5.66 µM (inactive) | 13.8 µM (inactive) | – | 2.96 µM (inactive) | 3.15 µM (inactive) | > 10 µM (inactive)
c1ccc2c(c1)Sc1ccccc1N2CCCN1c2ccccc2Sc2ccccc21 | 69.8 µM (inactive) | – | > 100 µM (inactive) | – | > 100 µM (inactive) | 76.4 µM (inactive) | > 100 µM (inactive) | > 100 µM (inactive) | 95.1 µM (inactive) | 36.1 µM (inactive) | > 100 µM (inactive) | > 100 µM (inactive) | > 100 µM (inactive) | > 100 µM (inactive) | > 100 µM (inactive) | > 100 µM (inactive) | > 100 µM (inactive) | – | 41.2 µM (inactive) | > 100 µM (inactive)
COc1ccc(C(NS(=O)(=O)c2ccc(C)cc2)c2c(C(CBr)OC)c3ccccc3n2S(=O)(=O)c2ccccc2)cc1OC (stereo not drawn) | > 100 µM (inactive) | 34.7 µM (inactive) | 85.5 µM (inactive) | > 100 µM (inactive) | > 100 µM (inactive) | > 100 µM (inactive) | > 100 µM (inactive) | > 100 µM (inactive) | > 100 µM (inactive) | > 100 µM (inactive) | > 100 µM (inactive) | > 100 µM (inactive) | > 100 µM (inactive) | > 100 µM (inactive) | > 100 µM (inactive) | > 100 µM (inactive) | > 100 µM (inactive) | – | > 100 µM (inactive) | –
Cc1nc2ccccc2c(=O)n1NC(=O)c1ccccn1 | > 100 µM (inactive) | 35.7 µM (inactive) | > 100 µM (inactive) | > 100 µM (inactive) | > 100 µM (inactive) | > 100 µM (inactive) | > 100 µM (inactive) | > 100 µM (inactive) | > 100 µM (inactive) | > 100 µM (inactive) | > 100 µM (inactive) | – | > 100 µM (inactive) | > 100 µM (inactive) | > 100 µM (inactive) | > 100 µM (inactive) | > 100 µM (inactive) | > 100 µM (inactive) | > 100 µM (inactive) | > 100 µM (inactive)
COc1ccc(C2=NN(C(=O)c3ccccc3)C(O)(c3cc(F)c(Cl)cc3Cl)C2)cc1OC (stereo not drawn) | 62.1 µM (inactive) | – | 21.4 µM (inactive) | > 100 µM (inactive) | 29.5 µM (inactive) | 8.61 µM (inactive) | 57.9 µM (inactive) | 56.1 µM (inactive) | 17.2 µM (inactive) | 18.5 µM (inactive) | 30.9 µM (inactive) | 32.1 µM (inactive) | 39 µM (inactive) | > 100 µM (inactive) | 36.5 µM (inactive) | 20.9 µM (inactive) | 32.1 µM (inactive) | 38 µM (inactive) | 34.5 µM (inactive) | –
CN1CN(c2ccccc2)C2(CCN(C3Nc4ccccc4O3)CC2)C1=O (stereo not drawn) | 20.8 µM (inactive) | 20.9 µM (inactive) | – | 12.5 µM (inactive) | 16.6 µM (inactive) | 9.57 µM (inactive) | 17.3 µM (inactive) | 17.5 µM (inactive) | 17 µM (inactive) | – | 27.5 µM (inactive) | 19.5 µM (inactive) | 22.7 µM (inactive) | 15.7 µM (inactive) | 23.7 µM (inactive) | 19.6 µM (inactive) | 15.5 µM (inactive) | 11.7 µM (inactive) | 12.9 µM (inactive) | 36.9 µM (inactive)
COc1ccc(C(=O)/C=C2\c3ccccc3C(=O)N2C)cc1 | 38 µM (inactive) | 22.8 µM (inactive) | 24.5 µM (inactive) | – | 71 µM (inactive) | 58.7 µM (inactive) | 31.7 µM (inactive) | 31.9 µM (inactive) | 60.4 µM (inactive) | 42.6 µM (inactive) | 44.3 µM (inactive) | 21 µM (inactive) | > 100 µM (inactive) | 68.1 µM (inactive) | > 100 µM (inactive) | 74.8 µM (inactive) | 69 µM (inactive) | 41.5 µM (inactive) | 90.6 µM (inactive) | 33.5 µM (inactive)
COC(=O)CC(c1cn(S(=O)(=O)c2ccc(C)cc2)c2ccccc12)C1C[C@@H](C(=O)OC)N(C(=O)OC(C)(C)C)C1=O (stereo partly drawn) | 4.89 µM (inactive) | 64.1 µM (inactive) | – | > 100 µM (inactive) | 20.9 µM (inactive) | 3.91 µM (inactive) | 83.4 µM (inactive) | 55.3 µM (inactive) | > 100 µM (inactive) | 55.3 µM (inactive) | 45.6 µM (inactive) | 33.5 µM (inactive) | 87.1 µM (inactive) | > 100 µM (inactive) | > 100 µM (inactive) | – | 71.4 µM (inactive) | 8.77 µM (inactive) | > 100 µM (inactive) | 3.08 µM (inactive)
CCOC(=O)C(Cc1ccc(OC(=O)c2ccc(OC)cc2)cc1)NC(=O)C(F)(F)F (stereo not drawn) | > 100 µM (inactive) | 20.7 µM (inactive) | 45.8 µM (inactive) | > 100 µM (inactive) | 80.7 µM (inactive) | > 100 µM (inactive) | > 100 µM (inactive) | > 100 µM (inactive) | 35.5 µM (inactive) | 87.7 µM (inactive) | > 100 µM (inactive) | > 100 µM (inactive) | > 100 µM (inactive) | > 100 µM (inactive) | > 100 µM (inactive) | > 100 µM (inactive) | > 100 µM (inactive) | > 100 µM (inactive) | > 100 µM (inactive) | –
